Assay results taken from US20130296236A1, “TREATMENT PROTOCOL OF DIABETES TYPE 2” (priority 2011, published 2013).

System: patients with type 2 diabetes
Format: in vivo, human
Conditions: reduction from […]; insulin glargine on top of metformin +/- TZDs, before randomized treatment
Description: The study consisted of 3 periods: (1) an up to 14-week screening period, which included an up to 2-week screening phase and a 12-week run-in phase with the introduction and titration of insulin glargine on top of metformin+/−TZDs; patients started insulin glargine once daily and titrated the insulin dose by a treat-to-target regimen to reach a glycemic target of FPG 100-80 mg/dl (5.6-4.4 mmol/L) during run-in.
Of note, per protocol, insulin dose adjustment to maintain fasting plasma glucose at target was allowed in both treatment groups throughout the study.

Substance: Gly(A21)-Arg(B31)-Arg(B32)-human insulin [insulin glargine]
- Mean HbA1c after the 12-week run-in phase, lixisenatide group: 7.56%
- Mean HbA1c after the 12-week run-in phase, placebo group: 7.60%
